Entries after “also recorded” stand apart in the source; their conditions may differ.

Experiment [1] deals with γ-globin gene promoter and HSS-II region of the locus control region. Put plainly: In vivo footprinting (LM-PCR) of patients' erythroblasts before and during treatment. The arrangement: species or system human. As to the method: To determine whether this increase was due to the transcriptional modulation of the γ-globin genes and, if so, to examine whether protein-DNA interactions of regulatory sequences for γ-globin gene expression have been changed, in vivo footprinting analysis of the γ-globin gene promoter and HSS-II region of the locus control region (LCR) were performed. […] Compared to conventional in vitro footprinting methods, which are ordinarily employed to analyze protein-DNA interactions for promoter regions and fail to disclose tissue-specific binding of nuclear proteins to cis-acting elements, in vivo footprinting technique is able to provide bona fide information on transcription factors binding to cis-acting elements that reflects in vivo situations.
Erythroid cell-rich fractions were prepared from patients' peripheral blood or bone marrow before and during treatment, and were in vivo methylated using DMS. […] All of the footprints were analyzed two or more times to ensure reproducibility.
In the γ-globin gene promoter, a DNA fragment extending up to −200 by relative to the transcription start site is sufficient to direct efficient transcription of the γ-globin genes (K. T. McDonagh et al., J. Biol. Chem. 266:11965-74, 1991; M. J. Urich Blood 75:990-99, 1990). […] Erythroblasts from a patient with sickle cell anemia, before and after butyrate treatment were analyzed. […]

Experiment [2] concerns Human mammary carcinoma cells (MCF-7). Put plainly: Human mammary carcinoma cell viability by FACS. The format is cell-based. The settings on record: 4 days. As to the method: Human mammary carcinoma cells (MCF-7) were cultured alone (controls) and with arginine butyrate or isobutyramide for 4 days. Viability was assayed by FACS after incubation with a fluorescent dye taken up by viable cells (FIG. 6). Growth was decreased by 50% with isobutyramide at 1.0 mM, about 60% with arginine butyrate at 0.5 mM, and greater than 90% with arginine butyrate at 1.0 mM.
A general note: Flow cytometry measures light scatter and fluorescence of single cells or particles in a stream.

Experiment [3] deals with proximal promoter of the gamma globin gene in K562 cells. Put plainly: Gamma globin promoter-neomycin (NEO) transfection, colony survival in G418. The format is cell-based, human. To be noted: 1 mM, 8 weeks. As to the method: Gamma globin promoter-neomycin transfection experiments were performed to determine if compounds act by inducing an increase in activity from the proximal promoter of the gamma globin gene. Constructs containing 61 by of the proximal gamma globin promoter were linked to the reporter gene for neomycin phosphotransferase (NEO) and transfected into permissive K562 cells by electroporation. After 18 hours, transfected cells were passed at 10^3 cells per well into RPMI media containing G418 (neomycin), which kills all mammalian cells unless the gene for NEO is expressed. Phenoxyacetic acid and thiophenoxyacetic acid were added to some of the cells plated into the RPMI/G418 media at concentrations of 1 mM. Cultures were incubated for 8 weeks with media changes performed as needed. Colonies which survived and grew in the presence of G418 were scored and the number of such colonies was compared to those generated when the cells were plated into G418 media without the test compounds. No colonies in the 24 wells survived in the absence of compounds. There was a greater than 6-fold (>600%) increase in proportions of colonies surviving the presence of phenoxyacetic acid (6/24 wells) and a three-fold (300%) increase in survival in the presence of thiophenoxyacetic acid (3/24 wells).

`CCCC(=O)O` [AB, arginine butyrate]: in experiment [1] (erythroblasts from a treated sickle cell patient), the “in vivo footprints of HSS-II” value is recorded as “novel in vivo footprints that were not seen in a pre-treatment sample became apparent”. The “in vivo footprints over the γ-globin promoter” value in experiment [1] (erythroblasts of treated patients with sickle cell anemia or β-thalassemia) is listed as “induces multiple transcription factors which interact with the γ-globin gene promoter; also recorded: degree of protection on G residues in FRE-γ1 consistently increased”. In addition, the results for the “decrease of growth of MCF-7” value in experiment [2] (0.5 mM) and in experiment [2] (1.0 mM) were “about 60%” and “greater than 90%”, respectively.

On to `O=C(O)COc1ccccc1` [PAA, Phenoxyacetic acid], for which the “increase in proportions of colonies surviving G418” value in experiment [3] is recorded as above 600%; in experiment [3] (no colonies without compounds), “greater than 6 fold”. Further, the “wells with surviving colonies” value in experiment [3] (0 of 24 wells without compounds) was 6/24.
